Where two headings read alike, the source gives them in different places. Marks after values point to notes of the source that are not given here.
What was measured:
[1] = Single-dose trial, plasma pharmacokinetics; type: in vivo, human; conditions: for Tmax / half-life / AUC(0-inf) / AUC(0-t) / MRT inf / MRT last / Cmax: both sexes, human, plasma; for Cmax: read-out: Cmax
Procedure: Single-dose pharmacokinetics: The single-dose trial was performed first. […] Drinking before and after medication was prohibited for 2 h, but the amount and time of drinking were not strictly controlled at other times. All subjects had standard lunch and dinner (unified light diet) after medication 4 and 10 h. Single-dose pharmacokinetics: […] We preserved 8 ml specimens into 10 ml centrifuge tubes and stored at −70°C for PK assessment. All samples were preserved at −70°C and analyzed with a LC-MS/MS (API 4000 LC-MS/MS, ABI Company, Foster City, CA, USA) at the Institute of Clinical Pharmacology, Central South University (Changsha, China). […] An aqueous solution of a stable internal standard (IS for CK: digoxin, Shijiaoke Biological Technology Co. Ltd., Beijing, China; IS for PPD: coumarin, Sigma-Aldrich, St. Louis, USA) and 1 M phosphate buffer were added to 0.5 ml of thawed sample, and analytical standards and quality control (QC) samples were prepared in the same matrix. All samples were treated with 2 ml of methyl tert-butyl ether (MTBE, CNW technologies GmbH, Duesseldorf, Germany) to precipitate the bulk of plasma proteins. After mechanical shock by mixing for 10 min and a subsequent centrifugation (4,000 rpm, 4°C, 10 min), 1.4 ml of the supernatant was transferred and blow-dried with nitrogen in a water bath at 40°C. Lastly, the residue was dissolved in 100 μl of mobile phase and then was subjected to a mechanical shock by mixing, and centrifuged. The supernatant was subsequently injected into the column for analysis. […] Accuracy and precision of the assay were determined by evaluating the performance of the assay controls. Over the quantification range, the accuracy of the QC samples varied from 85 to 115% and the intra- and inter-assay imprecision was <15%. PK parameters were derived according to noncompartmental analysis and actual elapsed time from dosing by WinNonlin version 6.1 (Pharsight Corporation, Mountain View, CA, USA). […] The area under the curve (AUC) from time zero to the last time point (AUClast) and the AUC extrapolated to infinity (AUCinf) were calculated using the linear trapezoidal rule. The slope (elimination rate constant, K) of the terminal phase of the plasma concentration-time profile was determined, using a weighting factor of 1, by the method of least squares (log-linear regression of at least three data points). The t1/2 was estimated as (ln2)/K. […] The apparent volume of distribution (V/F) was equal to (CL/F)/K. The mean residence time (MRT) was calculated as the area under the first moments curve (AUMC) divided by AUC. The dose-normalized PK parameters e.g., Cmax/D and AUClast/D, were obtained by dividing each PK result by the administered dose. The cumulative excretion rate was calculated as the amount of unchanged drug in the urine over a time interval divided by the dose and was expressed as thousand points (‰).

[2] = Phase 0 cross-over trial, sex differences in pharmacokinetics; type: in vivo, human; conditions: phase 0 trial; for half-life / Tmax: human, plasma, oral; for Tmax: read-out: Tmax, median (range); for Cmax/D, dose-normalized Cmax: in ng·ml⁻¹·mg⁻¹
Procedure: Cmax/D, dose-normalized Cmax value; Tmax, time to maximum plasma concentration; t1/2, terminal half-life; AUClast/D, dose-normalized AUClast value; AUCinf/D, dose-normalized AUCinf value; All values are presented as mean ± SD, except for Tmax, which is expressed as median (range). SD, standard deviation. PK parameters were compared between male and female by independent-sample t-test. A non-parametric test was performed on the Tmax and t1/2. * Compared with Male, p < 0.05. These were the results of phase 0 trial, which was a cross-over clinical trial and included 12 males and 12 females.

CYP3A4 = system: CYP3A4; set-up: method as in Xiao et al., 2016; conditions: human liver microsomes, human recombinant CYPs; ref Xiao et al., 2016; cited from earlier work
Sprague Dawley (SD) rats = conditions: cited from earlier work
[3] = single-dose trial, 25 mg oral, fasting
[4] = single-dose trial, 50 mg oral, fasting
[5] = single-dose trial, 100 mg oral, fasting
[6] = single-dose trial, 200 mg oral, fasting
[7] = single-dose trial, 400 mg oral, fasting
[8] = single-dose trial, 600 mg oral, fasting
[9] = single-dose trial, 800 mg oral, fasting

Q: With `CC(C)=CCC[C@](C)(OC1O[C@H](CO)[C@@H](O)[C@H](O)[C@H]1O)[C@H]1CC[C@]2(C)[C@@H]1[C@H](O)C[C@@H]1[C@@]3(C)CC[C@H](O)C(C)(C)[C@@H]3CC[C@]12C` (stereo partly drawn) [CK, 20-O-beta-D-glucopyranosyl-20(S)-protopanaxadiol] as the compound, how does the Tmax ([1]; oral, both trials, all doses, read-out: range of time to maximum concentration (Tmax)) read?
A: 1.5 to 6 h

Q: And the Tmax ([1]; oral, medians, both trials, read-out: Tmax in this study)?
A: 2.5 to 3.8 h

Q: And the half-life ([1]; oral, single-dose trial, 25–800 mg, read-out: mean t1/2 across the dose groups)?
A: 13.5 to 26.2 h

Q: And the Tmax ([1]; oral, single-dose trial, 25–800 mg, read-out: median Tmax across the dose groups)?
A: 2.5 to 3.3 h

Q: And the Tmax ([1]; po, 25 mg, single-dose trial, 25 mg oral, fasting, read-out: Tmax, median (range))?
A: 3 h

Q: What about the Tmax ([1]; po, 50 mg, single-dose trial, 50 mg oral, fasting, read-out: Tmax, median (range)) of the same compound?
A: 3 h

Q: And the Tmax ([1]; po, 100 mg, single-dose trial, 100 mg oral, fasting, read-out: Tmax, median (range))?
A: 3 h

Q: And the Tmax ([1]; po, 200 mg, single-dose trial, 200 mg oral, fasting, read-out: Tmax, median (range))?
A: 3.3 h

Q: What about the Tmax ([1]; po, 400 mg, single-dose trial, 400 mg oral, fasting, read-out: Tmax, median (range)) of the same compound?
A: 3 h

Q: And the AUC(0-inf) [1, 3]?
A: 1270 ± 276 ng·h/mL

Q: And the AUC(0-t) [1, 3]?
A: 1230 ± 267 ng·h/mL

Q: And the MRT inf [1, 3]?
A: 10.9 ± 1.9 h

Q: What about the MRT last [1, 3] of the same compound?
A: 8.9 ± 1.3 h

Q: What about the Cmax [1, 3] of the same compound?
A: 175 ± 35.1 ng/mL

Q: What about the half-life ([1]; single-dose trial, 25 mg oral, fasting, read-out: t1/2 (converted)) of the same compound?
A: 13.5 ± 0.6 h

Q: And the AUC(0-inf) [1, 4]?
A: 2250 ± 861 ng·h/mL

Q: And the AUC(0-t) [1, 4]?
A: 2120 ± 770 ng·h/mL

Q: And the MRT inf [1, 4]?
A: 12.5 ± 2.4 h

Q: And the MRT last [1, 4]?
A: 9.1 ± 0.7 h

Q: What about the Cmax [1, 4] of the same compound?
A: 300 ± 98.5 ng/mL

Q: What about the half-life ([1]; single-dose trial, 50 mg oral, fasting, read-out: t1/2 (converted)) of the same compound?
A: 15.9 ± 4.2 h

Q: What about the AUC(0-inf) [1, 5] of the same compound?
A: 2820 ± 1440 ng·h/mL

Q: What about the AUC(0-t) [1, 5] of the same compound?
A: 2760 ± 1420 ng·h/mL

Q: What about the MRT inf [1, 5] of the same compound?
A: 13.7 ± 1 h

Q: What about the MRT last [1, 5] of the same compound?
A: 11.4 ± 0.9 h

Q: What about the Cmax [1, 5] of the same compound?
A: 351 ± 180 ng/mL

Q: And the half-life ([1]; single-dose trial, 100 mg oral, fasting, read-out: t1/2 (converted))?
A: 22.4 ± 3.3 h

Q: And the AUC(0-inf) [1, 6]?
A: 6090 ± 3600 ng·h/mL

Q: What about the AUC(0-t) [1, 6] of the same compound?
A: 5960 ± 3520 ng·h/mL

Q: What about the MRT inf [1, 6] of the same compound?
A: 13.8 ± 1.6 h

Q: What about the MRT last [1, 6] of the same compound?
A: 11.5 ± 1.4 h

Q: And the Cmax [1, 6]?
A: 734 ± 408 ng/mL

Q: What about the half-life ([1]; single-dose trial, 200 mg oral, fasting, read-out: t1/2 (converted)) of the same compound?
A: 21.6 ± 5.5 h

Q: And the AUC(0-inf) [1, 7]?
A: 8240 ± 2050 ng·h/mL

Q: And the AUC(0-t) [1, 7]?
A: 8100 ± 2020 ng·h/mL

Q: What about the MRT inf [1, 7] of the same compound?
A: 14 ± 1.5 h

Q: What about the MRT last [1, 7] of the same compound?
A: 11.9 ± 1.1 h

Q: And the Cmax [1, 7]?
A: 1030 ± 295 ng/mL

Q: What about the half-life ([1]; single-dose trial, 400 mg oral, fasting, read-out: t1/2 (converted)) of the same compound?
A: 22.3 ± 4 h

Q: What about the AUC(0-inf) [1, 8] of the same compound?
A: 9280 ± 4240 ng·h/mL

Q: What about the AUC(0-t) [1, 8] of the same compound?
A: 9090 ± 4200 ng·h/mL

Q: And the MRT inf [1, 8]?
A: 15.9 ± 2.8 h

Q: What about the MRT last [1, 8] of the same compound?
A: 12.7 ± 0.9 h

Q: What about the Cmax [1, 8] of the same compound?
A: 1160 ± 466 ng/mL

Q: And the half-life ([1]; single-dose trial, 600 mg oral, fasting, read-out: t1/2 (converted))?
A: 26.2 ± 6.3 h

Q: And the AUC(0-inf) [1, 9]?
A: 9200 ± 4180 ng·h/mL

Q: What about the AUC(0-t) [1, 9] of the same compound?
A: 8990 ± 4100 ng·h/mL

Q: And the MRT inf [1, 9]?
A: 14.7 ± 2.6 h

Q: What about the MRT last [1, 9] of the same compound?
A: 12 ± 1.8 h

Q: And the Cmax [1, 9]?
A: 1180 ± 445 ng/mL

Q: And the half-life ([1]; single-dose trial, 800 mg oral, fasting, read-out: t1/2 (converted))?
A: 25.7 ± 3 h

Q: What about the CL/F [1, 3] of the same compound?
A: 20.5 ± 4.7 l·h ^−1

Q: What about the V/F [1, 3] of the same compound?
A: 397 ± 86 L

Q: What about the CL/F [1, 4] of the same compound?
A: 25.9 ± 11.2 l·h ^−1

Q: What about the V/F [1, 4] of the same compound?
A: 559 ± 185 L

Q: What about the CL/F [1, 5] of the same compound?
A: 44.5 ± 21.6 l·h ^−1

Q: What about the V/F [1, 5] of the same compound?
A: 1381 ± 546 L

Q: What about the CL/F [1, 6] of the same compound?
A: 47.7 ± 31.2 l·h ^−1

Q: What about the V/F [1, 6] of the same compound?
A: 1287 ± 563 L

Q: And the CL/F [1, 7]?
A: 51.2 ± 12.3 l·h ^−1

Q: And the V/F [1, 7]?
A: 1613 ± 379 L

Q: What about the CL/F [1, 8] of the same compound?
A: 76.1 ± 32.1 l·h ^−1

Q: And the V/F [1, 8]?
A: 3057 ± 2094 L

Q: What about the CL/F [1, 9] of the same compound?
A: 106 ± 50.3 l·h ^−1

Q: What about the V/F [1, 9] of the same compound?
A: 3993 ± 2136 L

Q: What about the half-life ([2]; Female (n = 12)) of the same compound?
A: 6.7 ± 1.2 h

Q: And the Tmax ([2]; Female (n = 12))?
A: 2.8 h

Q: And the half-life ([2]; Male (n = 12))?
A: 6.1 ± 1.1 h

Q: And the Tmax ([2]; Male (n = 12))?
A: 3.3 h

Q: What about the “AUCinf/D, dose-normalized AUCinf” value ([2]; Female (n = 12)) of the same compound?
A: 2016.33 ± 1124.90*

Q: What about the “AUClast/D, dose-normalized AUClast” value ([2]; Female (n = 12)) of the same compound?
A: 1984.33 ± 1809.10*

Q: And the “Cmax/D, dose-normalized Cmax” value ([2]; Female (n = 12))?
A: 24.87 ± 8.23*

Q: What about the “AUClast/D, dose-normalized AUClast” value ([2]; Male (n = 12)) of the same compound?
A: 387.86 ± 174.14

Q: And the “Cmax/D, dose-normalized Cmax” value ([2]; Male (n = 12))?
A: 16.44 ± 2.82

Q: And the “inhibition of CYP3A4” value (CYP3A4)?
A: moderate inhibitor

Q: What about the “substrate of CYP3A4” value (CYP3A4) of the same compound?
A: substrate

Q: And the “dose at which diarrhea symptom occurred” value (Sprague Dawley (SD) rats; long-term toxicity test, Sprague Dawley (SD) rats)?
A: 150 mg/kg

Q: And the “No observed adverse effect level (NOAEL)” value (Sprague Dawley (SD) rats; rats)?
A: 25.0 mg/kg

From paper PMC5769417, “Single- and Multiple-Dose Trials to Determine the Pharmacokinetics, Safety, Tolerability, and Sex Effect of Oral Ginsenoside Compound K in Healthy Chinese Volunteers” (Frontiers in Pharmacology, 2018)
